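Step 1: Grow cells in 96-well plates. Step 2: Expose to compound for 48 hours at 5 concentrations. Step 3: Interpolate endpoints linearly; if unreached, use highest concentration. TGI is the concentration that stops growth completely.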
Assays:
Assay in all cases: growth of human tumour cells (NCI), 48 h
UACC-62 melanoma = system: UACC-62 melanoma
BT-549 breast = system: BT-549 breast
A549 NSCLC = system: A549 NSCLC
OVCAR-4 ovarian = system: OVCAR-4 ovarian
HCC-2998 colon = system: HCC-2998 colon
COLO 205 colon = system: COLO 205 colon
RPMI-8226 leukemia = system: RPMI-8226 leukemia
DU-145 prostate = system: DU-145 prostate
M14 melanoma = system: M14 melanoma
KM12 colon = system: KM12 colon
HOP-62 NSCLC = system: HOP-62 NSCLC
TK-10 renal = system: TK-10 renal
SNB-19 CNS = system: SNB-19 CNS
HS 578T breast = system: HS 578T breast
SR leukemia = system: SR leukemia
SK-MEL-28 melanoma = system: SK-MEL-28 melanoma
U251 CNS = system: U251 CNS
OVCAR-5 ovarian = system: OVCAR-5 ovarian
SK-OV-3 ovarian = system: SK-OV-3 ovarian
MCF7 breast = system: MCF7 breast
K-562 leukemia = system: K-562 leukemia
MALME-3M melanoma = system: MALME-3M melanoma
SF-295 CNS = system: SF-295 CNS
NCI-H460 lung = system: NCI-H460 lung
T-47D breast = system: T-47D breast
OVCAR-3 ovarian = system: OVCAR-3 ovarian
LOX IMVI melanoma = system: LOX IMVI melanoma
SK-MEL-5 melanoma = system: SK-MEL-5 melanoma
IGROV1 ovarian = system: IGROV1 ovarian
EKVX NSCLC = system: EKVX NSCLC
SF-539 CNS = system: SF-539 CNS
SN12C renal = system: SN12C renal
CAKI-1 renal = system: CAKI-1 renal
786-0 renal = system: 786-0 renal
UACC-257 melanoma = system: UACC-257 melanoma
A498 renal = system: A498 renal
HT29 colon = system: HT29 colon
SNB-75 CNS = system: SNB-75 CNS
RXF 393 renal = system: RXF 393 renal
HL-60(TB) leukemia = system: HL-60(TB) leukemia
UO-31 renal = system: UO-31 renal
NCI-H226 lung = system: NCI-H226 lung
ACHN renal = system: ACHN renal
HCT-116 colon = system: HCT-116 colon
MDA-MB-435 = system: MDA-MB-435
SF-268 CNS = system: SF-268 CNS
OVCAR-8 ovarian = system: OVCAR-8 ovarian
CCRF-CEM leukemia = system: CCRF-CEM leukemia
NCI/ADR-RES ovarian = system: NCI/ADR-RES ovarian
MDA-MB-231 breast = system: MDA-MB-231 breast
MOLT-4 leukemia = system: MOLT-4 leukemia
SK-MEL-2 melanoma = system: SK-MEL-2 melanoma
MDA-N = system: MDA-N
NCI-H23 lung = system: NCI-H23 lung
PC-3 prostate = system: PC-3 prostate
SW-620 colon = system: SW-620 colon
HCT-15 colon = system: HCT-15 colon
NCI-H522 lung = system: NCI-H522 lung
HOP-92 NSCLC = system: HOP-92 NSCLC

O=C([C@H](O)[C@@H](O)c1ccc(Br)cc1)C12CC3CC(CC(C3)C1)C2
TGI (UACC-62 melanoma): 25.8 µM
TGI (BT-549 breast): 24 µM
TGI (A549 NSCLC): 97 µM
TGI (OVCAR-4 ovarian): > 100 µM
TGI (HCC-2998 colon): > 38.9 µM
TGI (COLO 205 colon): > 40.2 µM
TGI (RPMI-8226 leukemia): > 100 µM
TGI (DU-145 prostate): 51.8 µM
TGI (M14 melanoma): 37.5 µM
TGI (KM12 colon): > 74.9 µM
TGI (HOP-62 NSCLC): 26.6 µM
TGI (TK-10 renal): > 47.8 µM
TGI (SNB-19 CNS): > 90.4 µM
TGI (HS 578T breast): > 85.9 µM
TGI (SR leukemia): > 100 µM
TGI (SK-MEL-28 melanoma): > 68.6 µM
TGI (U251 CNS): > 36.4 µM
TGI (OVCAR-5 ovarian): > 72.9 µM
TGI (SK-OV-3 ovarian): > 75.2 µM
TGI (MCF7 breast): > 39.7 µM
TGI (K-562 leukemia): > 100 µM
TGI (MALME-3M melanoma): 51.4 µM
TGI (SF-295 CNS): 47.1 µM
TGI (NCI-H460 lung): 16.1 µM
TGI (T-47D breast): > 29.3 µM
TGI (OVCAR-3 ovarian): 32.4 µM
TGI (LOX IMVI melanoma): > 100 µM
TGI (SK-MEL-5 melanoma): > 56.2 µM
TGI (IGROV1 ovarian): 12.9 µM
TGI (EKVX NSCLC): > 76.9 µM
TGI (SF-539 CNS): > 28.7 µM
TGI (SN12C renal): > 65.8 µM
TGI (CAKI-1 renal): 59.2 µM
TGI (786-0 renal): 45.9 µM
TGI (UACC-257 melanoma): > 43.3 µM
TGI (A498 renal): 32.5 µM
TGI (HT29 colon): > 61.9 µM
TGI (SNB-75 CNS): 8.2 µM
TGI (RXF 393 renal): > 100 µM
TGI (HL-60(TB) leukemia): > 26.5 µM
TGI (UO-31 renal): > 55.2 µM
TGI (NCI-H226 lung): > 85.7 µM
TGI (ACHN renal): > 54.1 µM
TGI (HCT-116 colon): > 51.9 µM
TGI (MDA-MB-435): > 56.4 µM
TGI (SF-268 CNS): > 70.6 µM
TGI (OVCAR-8 ovarian): > 100 µM
TGI (CCRF-CEM leukemia): > 30.8 µM
TGI (NCI/ADR-RES ovarian): > 57.1 µM
TGI (MDA-MB-231 breast): > 43 µM
TGI (MOLT-4 leukemia): > 100 µM
TGI (SK-MEL-2 melanoma): > 31.6 µM
TGI (MDA-N): > 100 µM
TGI (NCI-H23 lung): > 37.9 µM
TGI (PC-3 prostate): 24.5 µM
TGI (SW-620 colon): > 38.4 µM
TGI (HCT-15 colon): > 75 µM
TGI (NCI-H522 lung): > 57.7 µM

O=C1c2ccccc2C2(c3ccc(Cl)cc3)NCc3ccccc3CN12 (centres undefined)
TGI (HOP-92 NSCLC): 56 µM
TGI (UACC-62 melanoma): 33.5 µM
TGI (BT-549 breast): > 100 µM
TGI (A549 NSCLC): 43.8 µM
TGI (OVCAR-4 ovarian): 79.3 µM
TGI (HCC-2998 colon): 45.6 µM
TGI (COLO 205 colon): 28.3 µM
TGI (RPMI-8226 leukemia): 75.2 µM
TGI (DU-145 prostate): 50.3 µM
TGI (M14 melanoma): 34 µM
TGI (KM12 colon): 44.2 µM
TGI (HOP-62 NSCLC): 30.5 µM
TGI (TK-10 renal): > 100 µM
TGI (SNB-19 CNS): 51.6 µM
TGI (HS 578T breast): 56.7 µM
TGI (SR leukemia): > 100 µM
TGI (SK-MEL-28 melanoma): > 100 µM
TGI (U251 CNS): > 100 µM
TGI (OVCAR-5 ovarian): 58.1 µM
TGI (SK-OV-3 ovarian): 80.9 µM
TGI (MCF7 breast): 40 µM
TGI (K-562 leukemia): > 100 µM
TGI (SF-295 CNS): 35.7 µM
TGI (NCI-H460 lung): 91.5 µM
TGI (T-47D breast): 49.9 µM
TGI (OVCAR-3 ovarian): 26.6 µM
TGI (LOX IMVI melanoma): 29.7 µM
TGI (SK-MEL-5 melanoma): 29.5 µM
TGI (IGROV1 ovarian): 94.7 µM
TGI (EKVX NSCLC): 49.1 µM
TGI (SF-539 CNS): 29.8 µM
TGI (SN12C renal): > 100 µM
TGI (CAKI-1 renal): > 100 µM
TGI (786-0 renal): 26.4 µM
TGI (UACC-257 melanoma): > 100 µM
TGI (A498 renal): 42.8 µM
TGI (HT29 colon): 28.5 µM
TGI (SNB-75 CNS): > 100 µM
TGI (RXF 393 renal): 29.6 µM
TGI (HL-60(TB) leukemia): 40.6 µM
TGI (UO-31 renal): 78.1 µM
TGI (ACHN renal): 51.6 µM
TGI (HCT-116 colon): 22.6 µM
TGI (MDA-MB-435): > 100 µM
TGI (SF-268 CNS): > 100 µM
TGI (OVCAR-8 ovarian): 60.8 µM
TGI (CCRF-CEM leukemia): 86.2 µM
TGI (NCI/ADR-RES ovarian): 29.9 µM
TGI (MDA-MB-231 breast): > 100 µM
TGI (MOLT-4 leukemia): 91.7 µM
TGI (SK-MEL-2 melanoma): 29.5 µM
TGI (MDA-N): > 100 µM
TGI (NCI-H23 lung): 48.4 µM
TGI (PC-3 prostate): 51.3 µM
TGI (SW-620 colon): > 100 µM
TGI (HCT-15 colon): 60.7 µM

Source: PubChem BioAssay (NCI)
